Experimental data from patent US20260152487A1 (Sitryx Therapeutics Limited, priority 2021, published 2026).

Key:
recombinant human PKM2 = biological target: T1, recombinant human PKM2 (Homo sapiens, UniProt P14618); test: Human PKM2 activation assay (Kinase-Glo Plus luminescent detection of generated ATP); assay type: biochemical; settings: for Emax / hPKM2 Emax: percentage activation normalised to DMSO vehicle (LOW) and 5 μM TEPP-46 (HIGH); for Emax: read-out: hPKM2 Emax; for EC50: recombinant human PKM2 activation, 4-parameter logistic fit, read-out: hPKM2 EC50
T1 construct: His (N); purchased R&D Systems
Summary of the method: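 N-His-tagged recombinant hPKM2 ([…]) with PEP and ADP was incubated with compound for 60 min at 26 °C, shaking, in 50 mM imidazole, 50 mM KCl, 7 mM MgCl2, 0.01% Tween20, 0.05% BSA, pH 7.2. ATP produced was read by Kinase-Glo Plus luminescence after 15 min.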

recombinant human PKLR = biological target: T2, recombinant human PKLR (Homo sapiens, UniProt P30613); test: Human PKLR activation assay (Kinase-Glo Plus luminescent detection of generated ATP); assay type: biochemical; settings: for EC50: activation of recombinant human PKLR, 4-parameter logistic fit, read-out: hPKLR EC50; for Emax: percentage activation normalised to DMSO vehicle (LOW) and 5 μM TEPP-46 (HIGH) controls, read-out: hPKLR Emax (%)
T2 construct: His (N); purchased R&D Systems
Method: Compound activation of recombinant human PKLR pyruvate kinase activity was determined by biochemical assay. N-terminal His-tagged enzyme was sourced from R&D Systems and its substrates phosphoenolpyruvate (PEP) and ADP from Sigma-Aldrich and 2Bscientific Ltd, respectively. The Kinase-Glo® Plus luminescence assay was from Promega. All other reagents were from Sigma-Aldrich. Test Compounds were prepared as 10 mM DMSO stocks and dilution series prepared in DMSO for direct dilution into Assay Buffer comprising 50 mM imidazole, 50 mM KCl, 7 mM MgCl2, 0.01% Tween20, 0.05% BSA (pH 7.2).
Human PKLR was diluted into Assay Buffer to a final concentration of 5 pM. Enzyme-Assay Buffer mix was dispensed into 384-well shallow-well white-walled plates and Test Compounds added by acoustic dispense (Echo®, Labcyte Inc).
After 60 minutes' incubation on an orbital shaker (300 rpm, 26° C.), enzyme activity was quantified by the luminescent detection of generated ATP. Kinase-Glo® Plus reagent was added to each well and the plates incubated for a further 15 minutes on an orbital shaker in the dark (300 rpm, 26° C.) before luminescence measurement on a plate reader (PHERAstar® FSX, BMG Labtech).
Percentage activation was calculated by normalising […] signals to plate LOW (DMSO vehicle) and HIGH (5 μM TEPP-46) controls. EC50 and Emax values were determined from 4-parameter logistic fits of compound concentration-response curves.

T1 sequence (P14618 2-531 limits assumed): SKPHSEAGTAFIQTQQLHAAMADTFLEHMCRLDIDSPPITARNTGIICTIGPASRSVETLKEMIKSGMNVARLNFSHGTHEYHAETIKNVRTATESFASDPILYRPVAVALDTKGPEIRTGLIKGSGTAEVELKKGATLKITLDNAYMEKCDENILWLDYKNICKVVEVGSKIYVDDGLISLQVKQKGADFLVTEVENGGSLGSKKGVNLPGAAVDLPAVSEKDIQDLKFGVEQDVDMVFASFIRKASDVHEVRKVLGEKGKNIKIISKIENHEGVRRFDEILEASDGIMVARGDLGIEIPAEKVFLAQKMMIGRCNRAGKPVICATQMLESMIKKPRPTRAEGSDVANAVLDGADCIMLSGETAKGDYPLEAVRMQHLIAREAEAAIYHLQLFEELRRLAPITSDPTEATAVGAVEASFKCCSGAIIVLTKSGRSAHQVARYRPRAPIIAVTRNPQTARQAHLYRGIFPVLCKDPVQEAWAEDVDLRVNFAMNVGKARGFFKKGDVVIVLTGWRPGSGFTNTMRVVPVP
T2 sequence (P30613 whole entry): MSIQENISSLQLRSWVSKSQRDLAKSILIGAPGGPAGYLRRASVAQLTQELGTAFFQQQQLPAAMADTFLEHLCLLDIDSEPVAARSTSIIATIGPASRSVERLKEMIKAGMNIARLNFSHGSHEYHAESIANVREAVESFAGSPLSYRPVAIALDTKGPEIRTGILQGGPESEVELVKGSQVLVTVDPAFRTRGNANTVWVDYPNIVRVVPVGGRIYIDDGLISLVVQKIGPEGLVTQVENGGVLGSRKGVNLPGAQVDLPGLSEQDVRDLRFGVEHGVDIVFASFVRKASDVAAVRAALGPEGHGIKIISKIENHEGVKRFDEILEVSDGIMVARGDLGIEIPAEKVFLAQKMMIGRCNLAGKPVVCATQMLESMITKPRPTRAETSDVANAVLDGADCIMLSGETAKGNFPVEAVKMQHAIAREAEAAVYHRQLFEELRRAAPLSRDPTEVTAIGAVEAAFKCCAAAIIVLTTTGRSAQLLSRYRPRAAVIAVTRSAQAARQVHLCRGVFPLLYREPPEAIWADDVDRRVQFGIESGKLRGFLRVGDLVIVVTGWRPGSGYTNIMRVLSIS

Compound | Emax (recombinant human PKM2) [%] | EC50 (recombinant human PKM2) [nM] | EC50 (recombinant human PKLR) [nM] | Emax (recombinant human PKLR) [%] | hPKM2 Emax (recombinant human PKM2) [%]
Cc1cccc(Cn2ncc3cc(S(=O)(=O)c4cc[nH]n4)ccc3c2=O)n1 [Example 239, 6-((1H-pyrazol-3-yl)sulfonyl)-2-((6-methylpyridin-2-yl)methyl)phthalazin-1(2H)-one] | 106 | 109 | 24.8 | 135 | –
C[C@H]1Cc2cc(S(=O)(=O)c3ccc4c(=O)n(Cc5ccn(C)n5)ncc4c3)ccc2O1 [Example 219, (S)-2-((1-methyl-1H-pyrazol-3-yl)methyl)-6-((2-methyl-2,3-dihydrobenzofuran-5-yl)sulfonyl)phthalazin-1(2H)-one] | 106 | 44.2 | 10.2 | 124 | –
COc1ccc([S@](=N)(=O)c2ccc3c(=O)n(Cc4ccc(OC)nc4)ncc3c2)cc1 (single isomer, unassigned) [Example 192] | – | 106 | 241 | 129 | 59.1
Cc1cccc(Cn2ncc3cc(S(=O)(=O)c4cnn(C5COC5)c4)ccc3c2=O)n1 [Example 270, 2-((6-methylpyridin-2-yl)methyl)-6-((1-(oxetan-3-yl)-1H-pyrazol-4-yl)sulfonyl)phthalazin-1(2H)-one] | 103 | 138 | 108 | 136 | –
Cc1ccc(F)c(Cn2ncc3cc(S(=O)(=O)c4cn[nH]c4)ccc3c2=O)n1 [Example 252, 6-((1H-pyrazol-4-yl)sulfonyl)-2-((3-fluoro-6-methylpyridin-2-yl)methyl)phthalazin-1(2H)-one] | 105 | 107 | 18 | 120 | –
O=c1c2ccc(S(=O)(=O)c3cnc4occc4c3)cc2cnn1Cc1cc[nH]n1 [Example 225, 2-((1H-pyrazol-3-yl)methyl)-6-(furo[2,3-b]pyridin-5-ylsulfonyl)phthalazin-1(2H)-one] | 114 | 50.3 | 8.6 | 117 | –
O=c1c2ccc(S(=O)(=O)c3ccc4c(c3)NCCO4)cc2cnn1Cc1ccn(CCO)n1 [Example 202, 6-((3,4-dihydro-2H-benzo[b][1,4]oxazin-6-yl)sulfonyl)-2-((1-(2-hydroxyethyl)-1H-pyrazol-3-yl)methyl)phthalazin-1(2H)-one] | 109 | 91.7 | 7.9 | 125 | –
O=c1c2ccc(S(=O)(=O)c3ccc4occc4c3)cc2cnn1Cc1cc[nH]n1 [Example 195, 2-((1H-pyrazol-3-yl)methyl)-6-(benzofuran-5-ylsulfonyl)phthalazin-1(2H)-one] | 112 | 18.4 | 2 | 121 | –
Cc1nc(Cn2ncc3cc(S(=O)(=O)c4cn[nH]c4)ccc3c2=O)ccc1F [Example 251, 6-((1H-pyrazol-4-yl)sulfonyl)-2-((5-fluoro-6-methylpyridin-2-yl)methyl)phthalazin-1(2H)-one] | 116 | 111 | 11.3 | 111 | –
COc1ccc([S@@](=N)(=O)c2ccc3c(=O)n(Cc4ccc(OC)nc4)ncc3c2)cc1 (single isomer, unassigned) [Example 138] | 91.2 | 85.6 | 14 | 133 | –
2-(3-aminobenzyl)-6-((2-mathylthiazol-4-yl)sulfonyl)phthalazin-1(2H)-one [Example 151] | – | 36.5 | – | – | 92.52
Cc1cc(Cn2ncc3cc(S(=O)(=O)c4cnn(C(F)F)c4)ncc3c2=O)n[nH]1 [Example 343] | 98.2 | 97.6 | – | – | –
Nc1cccc(Cn2ncc3cc(S(=O)(=O)c4ccccn4)ccc3c2=O)c1 [Example 144, 2-(3-aminobenzyl)-6-(pyridin-2-ylsulfonyl)phthalazin-1(2H)-one] | 114 | 144 | – | – | –
